Experimental data reported in ChEMBL document CHEMBL1201862, “PubChem BioAssay data set” (2004).
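Five concentrations, 48 hours, 96-well plates. At the GI50, growth is halved.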 Activity calls are given as the source filed them. No stated cut-off is given here; in the data, active = GI50 up to about 1.1 µM and inactive = higher.

Columns and labels:
Experiment in all cases: inhibition of tumour cell growth, NCI panel, 48 h
A549 = test system: A549
SF-295 = test system: SF-295
Malme-3M = test system: Malme-3M
A498 = test system: A498
MOLT-4 = test system: MOLT-4
UACC-257 = test system: UACC-257
UACC-62 = test system: UACC-62
HCC 2998 = test system: HCC 2998
LOX IMVI = test system: LOX IMVI
RPMI-8226 = test system: RPMI-8226
COLO 205 = test system: COLO 205
SK-OV-3 = test system: SK-OV-3
SNB-19 = test system: SNB-19
HL-60 = test system: HL-60
OVCAR-4 = test system: OVCAR-4
K562 = test system: K562
SK-MEL-5 = test system: SK-MEL-5
SF-539 = test system: SF-539
SW-620 = test system: SW-620
HOP-92 = test system: HOP-92

Measured: GI50

CC(=O)OC1c2ccccc2CCCCCCC12OCCO2 (configuration not stated)
inactive: A549 > 100 µM | SF-295 > 100 µM | Malme-3M 92.5 µM | A498 > 100 µM | MOLT-4 60.3 µM | UACC-257 55.5 µM | UACC-62 > 100 µM | HCC 2998 > 100 µM | LOX IMVI > 100 µM | RPMI-8226 48.3 µM | COLO 205 > 100 µM | SK-OV-3 > 100 µM | SNB-19 > 100 µM | HL-60 44.3 µM | OVCAR-4 > 100 µM | K562 55.2 µM | SK-MEL-5 55.5 µM | SF-539 > 100 µM | SW-620 > 100 µM

O=C(CC1(O)C(=O)Nc2c(Cl)cc(Cl)cc21)c1cccc2ccccc12 (configuration not stated)
inactive: A549 15.1 µM | SF-295 15.7 µM | Malme-3M 19.5 µM | A498 21.5 µM | MOLT-4 20 µM | UACC-257 15.8 µM | UACC-62 14.9 µM | LOX IMVI 17.7 µM | RPMI-8226 19.6 µM | COLO 205 17 µM | SK-OV-3 16.6 µM | SNB-19 14.1 µM | HL-60 10.5 µM | OVCAR-4 12.4 µM | K562 16.6 µM | SK-MEL-5 15.2 µM | SF-539 17.1 µM | SW-620 16 µM

CC(=O)OCCOCNC(=S)N/N=C/c1ccc(Br)s1
inactive: HOP-92 > 100 µM | A549 > 88.7 µM | SF-295 > 76 µM | Malme-3M > 100 µM | A498 > 100 µM | MOLT-4 > 26.1 µM | UACC-257 > 100 µM | UACC-62 > 100 µM | HCC 2998 > 100 µM | LOX IMVI 77.1 µM | RPMI-8226 5.08 µM | COLO 205 > 100 µM | SK-OV-3 > 100 µM | SNB-19 > 100 µM | OVCAR-4 > 93.3 µM | K562 > 20.8 µM | SK-MEL-5 > 100 µM | SF-539 > 100 µM | SW-620 > 100 µM

COc1ccc(/C=C/NC=O)cc1
inactive: A549 > 100 µM | SF-295 > 100 µM | Malme-3M > 100 µM | A498 > 100 µM | MOLT-4 > 100 µM | UACC-257 > 100 µM | UACC-62 > 100 µM | HCC 2998 > 100 µM | LOX IMVI > 100 µM | RPMI-8226 > 100 µM | COLO 205 > 100 µM | SK-OV-3 > 100 µM | SNB-19 > 100 µM | HL-60 > 100 µM | OVCAR-4 > 100 µM | K562 > 100 µM | SK-MEL-5 > 100 µM | SF-539 > 100 µM | SW-620 > 100 µM

COc1ccc(CC2c3c(cc(OC)c(OC)c3OC)CCN2C)cc1OC (configuration not stated)
inactive: A549 > 100 µM | SF-295 63.7 µM | Malme-3M > 100 µM | A498 > 100 µM | MOLT-4 > 100 µM | UACC-257 > 100 µM | HCC 2998 > 100 µM | RPMI-8226 > 100 µM | SNB-19 > 100 µM | OVCAR-4 78.7 µM | K562 > 100 µM | SK-MEL-5 > 100 µM | SF-539 > 100 µM | SW-620 > 100 µM

CS(=O)(=O)N(CCC#N)c1ccc(/C=N/NC(=O)CC(=O)Nc2cccc(Cl)c2)cc1
inactive: A549 > 100 µM | SF-295 > 100 µM | Malme-3M > 100 µM | A498 > 100 µM | MOLT-4 > 100 µM | UACC-257 > 100 µM | UACC-62 > 100 µM | HCC 2998 > 100 µM | LOX IMVI > 100 µM | RPMI-8226 > 100 µM | COLO 205 > 100 µM | SK-OV-3 > 100 µM | SNB-19 > 100 µM | OVCAR-4 > 100 µM | K562 > 100 µM | SK-MEL-5 > 100 µM | SF-539 > 100 µM | SW-620 > 100 µM

Oc1c(N2CCCCC2)cc(-c2cc(N3CCCCC3)c(O)c3ccccc23)c2ccccc12
inactive: HOP-92 23.4 µM | A549 39.3 µM | SF-295 41.2 µM | Malme-3M 12 µM | MOLT-4 22.9 µM | UACC-257 14.9 µM | UACC-62 21.1 µM | HCC 2998 33.5 µM | LOX IMVI 25.1 µM | RPMI-8226 29.6 µM | COLO 205 26.2 µM | SK-OV-3 > 100 µM | SNB-19 98.4 µM | HL-60 27.7 µM | OVCAR-4 17.1 µM | K562 71.9 µM | SK-MEL-5 17.5 µM | SF-539 33.2 µM | SW-620 29.3 µM

CNC(=S)Nc1ccc(OC)c2ccccc12
inactive: HOP-92 > 10 µM | A549 > 10 µM | SF-295 2.04 µM | Malme-3M > 10 µM | MOLT-4 > 10 µM | UACC-257 > 10 µM | UACC-62 > 10 µM | HCC 2998 > 10 µM | LOX IMVI > 10 µM | RPMI-8226 > 10 µM | COLO 205 > 10 µM | SK-OV-3 > 10 µM | SNB-19 > 10 µM | HL-60 > 10 µM | OVCAR-4 > 10 µM | K562 > 10 µM | SK-MEL-5 > 10 µM | SF-539 > 10 µM | SW-620 > 10 µM

CCOC(=O)CNc1nc(=O)c2c(=O)oc(Cl)cc2o1
inactive: HOP-92 3.69 µM | A549 18.3 µM | SF-295 25 µM | Malme-3M 11.4 µM | A498 17.5 µM | MOLT-4 12.6 µM | UACC-257 17.5 µM | UACC-62 18.2 µM | HCC 2998 15.6 µM | LOX IMVI 10.5 µM | COLO 205 16.7 µM | SK-OV-3 > 100 µM | SNB-19 33.3 µM | OVCAR-4 17.6 µM | K562 6.25 µM | SK-MEL-5 27.1 µM | SF-539 6.79 µM | SW-620 8.81 µM

O=C1CCCC/C1=C\c1ccc(Br)cc1
inactive: HOP-92 17.1 µM | A549 22.4 µM | SF-295 21.1 µM | Malme-3M 7.73 µM | MOLT-4 2.14 µM | UACC-257 26.8 µM | UACC-62 6.61 µM | HCC 2998 23.2 µM | LOX IMVI 39.6 µM | RPMI-8226 15.7 µM | COLO 205 17.6 µM | SK-OV-3 24.8 µM | SNB-19 3.69 µM | HL-60 2.4 µM | OVCAR-4 22 µM | K562 4.33 µM | SK-MEL-5 22.7 µM | SF-539 19.9 µM | SW-620 > 100 µM

Cc1cccc(-n2c(C)nc3ccc(NC4OC(CO)C(O)C(O)C4O)cc3c2=O)c1 (configuration not stated)
inactive: SF-295 > 100 µM | Malme-3M > 100 µM | A498 > 100 µM | MOLT-4 > 100 µM | UACC-257 > 100 µM | UACC-62 > 100 µM | HCC 2998 > 100 µM | LOX IMVI > 100 µM | RPMI-8226 > 100 µM | COLO 205 > 100 µM | SNB-19 > 100 µM | HL-60 > 100 µM | OVCAR-4 > 100 µM | K562 > 100 µM | SK-MEL-5 > 100 µM | SW-620 > 100 µM

CC(=O)NC(CCCNCc1ccccc1)C(=O)NCc1ccccc1 (configuration not stated)
inactive: HOP-92 > 100 µM | A549 > 100 µM | SF-295 > 100 µM | Malme-3M > 100 µM | A498 > 100 µM | MOLT-4 > 100 µM | UACC-257 > 100 µM | UACC-62 > 100 µM | HCC 2998 > 100 µM | LOX IMVI > 100 µM | RPMI-8226 > 100 µM | COLO 205 > 100 µM | SK-OV-3 > 100 µM | SNB-19 > 100 µM | OVCAR-4 > 100 µM | K562 > 100 µM | SK-MEL-5 > 100 µM | SF-539 > 100 µM | SW-620 > 100 µM

O=c1c2ccc(Cl)cc2oc2c(CNc3ccc(S(=O)(=O)Nc4nccs4)cc3)cccc12
inactive: HOP-92 31.2 µM | A549 > 100 µM | SF-295 > 100 µM | Malme-3M > 100 µM | A498 > 100 µM | MOLT-4 > 100 µM | UACC-257 > 100 µM | UACC-62 > 100 µM | HCC 2998 > 100 µM | LOX IMVI > 100 µM | RPMI-8226 > 100 µM | COLO 205 > 100 µM | SK-OV-3 > 100 µM | SNB-19 > 100 µM | OVCAR-4 > 100 µM | K562 > 100 µM | SK-MEL-5 > 100 µM | SF-539 99.1 µM | SW-620 > 100 µM

Cc1nn(C(=O)c2ccc(Cl)cc2)c2c1C(c1cccc([N+](=O)[O-])c1)SC(=N)N2 (configuration not stated)
inactive: HOP-92 > 10 µM | A549 > 10 µM | SF-295 > 10 µM | Malme-3M > 10 µM | MOLT-4 > 10 µM | UACC-257 > 10 µM | UACC-62 > 10 µM | HCC 2998 > 10 µM | LOX IMVI > 10 µM | RPMI-8226 > 10 µM | COLO 205 > 10 µM | SK-OV-3 > 10 µM | SNB-19 > 10 µM | HL-60 > 10 µM | OVCAR-4 > 10 µM | K562 > 10 µM | SK-MEL-5 > 10 µM | SF-539 > 10 µM | SW-620 > 10 µM

O=S(=O)(O)c1cccc2c(/N=N/c3c(O)ccc4ccccc34)cccc12
inactive: HOP-92 > 100 µM | A549 > 100 µM | SF-295 > 100 µM | Malme-3M > 100 µM | A498 > 100 µM | MOLT-4 > 100 µM | UACC-257 > 100 µM | UACC-62 > 100 µM | LOX IMVI > 100 µM | RPMI-8226 > 100 µM | COLO 205 > 100 µM | SK-OV-3 > 100 µM | SNB-19 > 100 µM | OVCAR-4 > 100 µM | K562 > 100 µM | SK-MEL-5 46.2 µM | SW-620 > 100 µM
